Source: patent US12018307B2, “Process for producing a glucuronide and genetically modified microorganisms useful in this process” (UTAH STATE UNIVERSITY, priority 2021, dated 2024)
Converted amounts (≈) assume the structure as drawn. Read-outs that look alike come from different tables or passages of the source.

Assays:
[1] = Determination of the water-solubility; assay type: physicochemical
Procedure: The purified product was tested for their water solubility as previously described (Wang et al. 2014). Purified 2′-hydroxyflavone glycoside was used to establish standard curves for quantifying water solubility. Briefly, the purified compound and the substrate were each mixed with 300 μL of distilled water in an Eppendorf tube at 25° C. An ultrasonic cleaner was used to facilitate the dissolution. After 30 min of sonication and centrifugation at 13,000×g for 10 min, supernatant of each sample was analyzed by HPLC to determine the compound concentrations in the solution. All samples were performed in triplicate and water solubility of each sample are expressed as the mean±standard deviation (SD).

[2] = test system: human peripheral blood mononuclear cells; conditions: cited from earlier work

O=c1cc(-c2ccccc2O)oc2ccccc12 [2′-hydroxyflavone, reference compound]
solubility at 30 min ([1]; thermodynamic from solid, distilled water, 25° C., 30 min sonication, HPLC, n=3, mean±SD): 2.5 ± 0.7 µg/mL (≈ 10.5 µM)

O=C(O)[C@H]1O[C@@H](Oc2ccccc2-c2cc(=O)c3ccccc3o2)[C@H](O)[C@@H](O)[C@@H]1O [hydroxyflavone-2′-O-β-D-glucuronide]
water solubility ([1]; distilled water, 25° C., 30 min sonication, HPLC, n=3, mean±SD): 34.8 ± 0.9 µg/mL (≈ 84 µM)
water solubility relative to the substrate 2′-hydroxyflavone ([1]; ratio glucuronide / substrate): around 14 times

Oc1ccc(C=Cc2cc(O)cc(O)c2)cc1 [resveratrol, reference compound]
cytotoxicity to human peripheral blood mononuclear cells ([2]; at 30 μM): has cytotoxicity

O=C(O)[C@H]1O[C@@H](Oc2ccc(/C=C/c3cc(O)cc(O)c3)cc2)[C@H](O)[C@@H](O)[C@@H]1O [resveratrol-4′-O-β-D-glucuronide, Resveratrol-4′-O-β-D-glucuronide]
cytotoxicity to human peripheral blood mononuclear cells ([2]; at 300 μM): did not show any cytotoxicity
